Patent publication US11185530B2, “Composition for preventing or treating hearing loss, containing atorvastatin as active ingredient” (AJOU UNIVERSITY INDUSTRY-ACADEMIC COOPERATION FOUNDATION, priority 2017, dated 2021)

What was measured:
diabetic mouse model = test: Body weight, blood glucose, glucose tolerance and insulin tolerance in diabetic mouse model; assay type: in vivo, C57/BL6J male mice; conditions: 12-week diabetic mice, 20 mg/kg i.p. once every 2 days for 5 weeks, vs control group
Experimental: The diabetes-mediated hearing loss model was fed with 60% high fat/30% fructose water for 12 weeks and bred to induce diabetes. The diabetes model was established by measuring blood glucose levels, and testing glucose tolerance and insulin tolerance once every two weeks for 12 weeks, weighing weekly and conducting food/water intake efficiency tests twice weekly.
The experimental group was divided into an atorvastatin group (n=15, 20 mg/kg) and a control (vehicle) group (n=15, DMSO+normal saline) and intraperitoneal administration was conducted once every 2 days for 5 weeks. During the drug administration period, body weight and food intake efficiency tests were performed. Hearing tests, blood glucose measurement, and glucose and insulin tolerance tests were performed immediately before the end of the administration period.
In addition, body weight, blood glucose level, glucose tolerance and insulin tolerance were measured in the experimental group, obtained by administering atorvastatin to the 12-week diabetic mice, and in the control group. […] All statistical significance was analyzed using one-way ANOVA of SPSS program and student's T-tests.

HEI-OC1 cells [1] = test: Western blotting of cleaved caspase-3, PARP and AKT phosphorylation; assay type: cell-based
[2] = test system: auditory cell line (HEI-OC1); test: WST-1 assay of cytotoxicity and cell viability; assay type: cell-based
Experimental: The effect of palmitate on cytotoxicity and cell viability of the auditory cell line (HEI-OC1) was quantitatively analyzed through a WST-1 assay.
In order to evaluate the function of atorvastatin against the cytotoxicity of palmitate, atorvastatin was pre-treated at each concentration and palmitate was post-treated at each concentration.
The cytotoxic and apoptotic effects of palmitate and the cytoprotective effect of atorvastatin were analyzed using a student's T-test for statistical significance through quantification.

[3] = test system: auditory cell line (HEI-OC1); test: ATP detection luminescence; assay type: cell-based; conditions: total extract of cells, palmitate plus atorvastatin
Experimental: In addition, the effects of atorvastatin on the protection of cells and on energy metabolisms were evaluated using ATP detection luminescence.

[4] = test system: cochlea of the diabetic mouse model; test: H&E staining and immunohistochemistry (DHE, TUNEL) of cochlea of diabetic mouse model; assay type: in vivo, C57/BL6J male mice
Experimental: Damage to cochlear hair cells around the base and middle turn (16 kHz) region, fibrocytes of the lateral wall and spiral ganglion cells of the cochlea of the diabetic mouse model established in Example 1 was evaluated through H & E (hematoxylin and eosin) staining and immunohistochemistry.
Then, the auditory cells (cochlear hair cells) were observed through immunohistochemistry.
The spiral ganglion cells were analyzed by H & E staining.
Stria vascularis cells in the lateral wall in the cochlea (inner ear) were analyzed by H & E staining.

[5] = test system: auditory cell line (HEI-OC1); test: DCFDA staining of reactive oxygen species; assay type: cell-based; conditions: HEI-OC1, palmitate and atorvastatin
[6] = test system: auditory cell line (HEI-OC1); test: TUNEL immunostaining quantified by fluorescence microscopy; assay type: cell-based; conditions: HEI-OC1, combination of palmitate and atorvastatin
[7] = test system: mouse model of age-related hearing loss; conditions: Neuroscience Letters, 2007; cited from earlier work
[8] = test system: noise-induced hearing loss rat model; conditions: low dose, 5 mg/kg; Int J Occup Environ Med, 2016; cited from earlier work
[9] = test system: breast cancer cell xenograft model; conditions: Front. Med. China, 2009; cited from earlier work
obese C57 mice = conditions: Lipids in Health and Disease, 2014; cited from earlier work
HEI-OC1 cells [10] = test: PI staining and cell morphology analysis of apoptosis; assay type: cell-based; conditions: HEI-OC1, 24 hours, 200 to 800 μM tested
Experimental: As a cell experiment model that replaces the diabetic mouse model through a high fat/fructose diet, that is, obesity, a cytotoxicity experiment model based on saturated fatty acid palmitate, which is an intermediate product of lipid synthesis that is excessively abundant during obesity, has been devised. HEI-OC1 (house-ear institute-organ of Corti 1), the auditory cell line conducting the major auditory function, was used, and the diabetes-mediated hearing loss cell line model was treated with palmitate.
In order to evaluate apoptosis, 24 hours after HEI-OC1 cells, the auditory cell line, were treated with 200 to 800 μM of palmitate, PI (propidium iodide) staining and the cell morphology thereof were analyzed. As a result, cell apoptosis was induced with a change in cell morphology from the palmitate concentration of 200 μM, and this phenomenon became more apparent as the concentration increased (FIG. 4 in part A).

[11] = atorvastatin-administered diabetic mice

Structure (SMILES): CC(C)c1c(C(=O)Nc2ccccc2)c(-c2ccccc2)c(-c2ccc(F)cc2)n1CC[C@@H](O)C[C@@H](O)CC(=O)O [atorvastatin]
- blood glucose level (diabetic mouse model): significantly improved
- body weight (diabetic mouse model): reduced
- glucose tolerance (GTT) (diabetic mouse model): significantly improved
- insulin tolerance (ITT) (diabetic mouse model): significantly improved
- phosphorylation of AKT after treatment with atorvastatin (HEI-OC1 cells [1]; HEI-OC1, by concentration and time): increased
- AKT protein phosphorylation under palmitate treatment (HEI-OC1 cells [1]; HEI-OC1, palmitate plus atorvastatin): inhibited the reduction of AKT protein phosphorylation
- cytotoxicity, treatment only with atorvastatin ([2]; 250, 500 or 1,000 nM, HEI-OC1): cytotoxicity was not observed
- palmitate-induced apoptosis (WST-1 cell viability) ([2]; atorvastatin pre-treated, palmitate post-treated, 24 hours): significantly inhibited
- production of mitochondrial energy (ATP) [3]: maintained the production of mitochondrial energy (ATP)
- TUNEL expression in spiral ganglion cells [4, 11]: suppressed
- apoptosis (TUNEL) of stria vascularis cells [4, 11]: markedly suppressed
- enlargement of stria vascularis tissue of the lateral wall (H&E) [4, 11]: not observed
- reactive oxygen species in cochlear hair cells (DHE immunohistochemistry) [4, 11]: decreased reactive oxygen species, like normal mice
- spiral ganglion cell size and nucleus morphology (H&E) ([4]; atorvastatin-administered diabetic mice vs normal group): larger cell size than that of the normal group, but had no change in nucleus morphology
- morphology of cochlear hair cells (H&E) ([4]; diabetic mice administered with atorvastatin): no morphological changes
- generation of reactive oxygen species (DCFDA) [5]: statistically significantly inhibit
- number of TUNEL-stained cells [6]: statistically decreased
- hearing loss in age-related hearing loss model [7]: delaying or inhibiting hearing loss
- hearing loss in noise-induced model [8]: statistically significant effect of inhibiting hearing loss
- tumor growth and metastasis [9]: inhibit tumor growth and metastasis
- obesity-induced type 2 diabetes (obese C57 mice): inhibits obesity-induced type 2 diabetes

Structure (SMILES): CCCCCCCCCCCCCCCC(=O)O [palmitate]
- concentration from which cell apoptosis with change in cell morphology was induced (HEI-OC1 cells [10]): ≥ 200 μM
- cytotoxicity (WST-1 cell viability assay) ([2]; 24 hours, palmitate at 100, 200 and 400 μM): 20 to 40%
